In patent US20260042731A1, “(2,4-DICHLOROPHENOXY)ACETIC ACID ANALOGS” (CORTEVA AGRISCIENCE LLC, priority 2022, published 2026):
Read-outs that look alike come from different tables or passages of the source.

Columns and labels:
[1] = system: weeds ABUTH, AMATA, AMBEL, CHEAL, ERICA; assay: Postemergence herbicide evaluation, overall average % weed control across ABUTH, AMATA, AMBEL, CHEAL and ERICA; type: in vivo; conditions: post-emergence, read-out: Overall Ave % Weed Control
[2] = system: Chenopodium album (CHEAL), common lambsquarters; assay: Postemergence herbicide evaluation, growth of Chenopodium album (CHEAL); type: in vivo; conditions: Chenopodium album, post-emergence
[3] = system: Ambrosia artemisiifolia (AMBEL), common ragweed; assay: Postemergence herbicide evaluation, growth of Ambrosia artemisiifolia (AMBEL); type: in vivo; conditions: Ambrosia artemisiifolia, post-emergence
[4] = Volatility of compounds measured by thermogravimetric analysis (TGA); type: physicochemical
[5] = system: Abutilon theophrasti (ABUTH), velvetleaf; assay: Postemergence herbicide evaluation, growth of Abutilon theophrasti (ABUTH); type: in vivo; conditions: Abutilon theophrasti, post-emergence
[6] = system: Amaranthus rudis (AMATA), tall water hemp; assay: Postemergence herbicide evaluation, growth of Amaranthus rudis (AMATA); type: in vivo; conditions: Amaranthus tuberculatus, post-emergence
[7] = system: glyphosate resistant Conyza canadensis (L.) (ERICA), horseweed; assay: Postemergence herbicide evaluation, growth of Conyza canadensis (ERICA); type: in vivo; conditions: Erigeron canadensis, post-emergence; for pest or weed control at 280 g/ha: 280 g ae/ha; for pest or weed control at 560 g/ha: 560 g ae/ha
[8] = system: weeds (ABUTH, AMATA, AMBEL, CHEAL, ERICA); assay: Postemergence herbicide evaluation, overall average % weed control across ABUTH, AMATA, AMBEL, CHEAL, ERICA; type: in vivo; conditions: post-emergence, average over the five weeds, read-out: Overall Ave % Weed Control; for pest or weed control at 280 g/ha: 280 g ae/ha; for pest or weed control at 560 g/ha: 560 g ae/ha
[9] = system: weeds ABUTH, AMATA, AMBEL, CHEAL, ERICA; assay: Postemergence herbicide evaluation, overall average % weed control (ABUTH, AMATA, AMBEL, CHEAL, ERICA); type: in vivo; conditions: post-emergence, 168 h, 7 DAA, read-out: Overall Ave % Weed Control
[10] = 168 h, 7 DAA, read-out: Ave. ERICA, percent reduction in plant size relative to the untreated control
[11] = 336 h, 14 DAA, percent reduction in plant size relative to untreated control, read-out: Ave. ERICA
[12] = 504 h, 21 DAA, percent reduction in plant size relative to untreated control, read-out: Ave. ERICA

## O=C(COc1ccc(Cl)cc1Cl)OCCOC(=O)COc1ccc(Cl)cc1Cl [Compound B9]
[1]; 168 h
  pest or weed control at 280 g/ha: 75%
  pest or weed control at 560 g/ha: 72.3%
[1]; 336 h
  pest or weed control at 280 g/ha: 86.5%
  pest or weed control at 560 g/ha: 86.6%
[1]; 504 h
  pest or weed control at 280 g/ha: 92.5%
  pest or weed control at 560 g/ha: 89.9%
[2]; 168 h, read-out: Ave. CHEAL
  pest or weed control at 280 g/ha: 82.5%
  pest or weed control at 560 g/ha: 77.5%
[2]; 336 h, read-out: Ave. CHEAL
  pest or weed control at 280 g/ha: 94%
  pest or weed control at 560 g/ha: 95%
[2]; 504 h, read-out: Ave. CHEAL
  pest or weed control at 280 g/ha: 97.5%
  pest or weed control at 560 g/ha: 92.5%
[3]; 168 h, read-out: AVE. AMBEL
  pest or weed control at 280 g/ha: 77.5%
  pest or weed control at 560 g/ha: 74%
[3]; 336 h, read-out: AVE. AMBEL
  pest or weed control at 280 g/ha: 70%
  pest or weed control at 560 g/ha: 85%
[3]; 504 h, read-out: AVE. AMBEL
  pest or weed control at 280 g/ha: 100%
  pest or weed control at 560 g/ha: 100%
[4]
  TGA Data (rate of weight loss, volatility): 0.1482 µg/min
[5]; 168 h, read-out: AVE. ABUTH
  pest or weed control at 280 g/ha: 57.5%
  pest or weed control at 560 g/ha: 57.5%
[5]; 336 h, read-out: AVE. ABUTH
  pest or weed control at 280 g/ha: 77.5%
  pest or weed control at 560 g/ha: 70%
[5]; 504 h, read-out: AVE. ABUTH
  pest or weed control at 280 g/ha: 98.5%
  pest or weed control at 560 g/ha: 75%
[6]; 168 h, read-out: Ave. AMATA
  pest or weed control at 280 g/ha: 72.5%
  pest or weed control at 560 g/ha: 77.5%
[6]; 336 h, read-out: Ave. AMATA
  pest or weed control at 280 g/ha: 91%
  pest or weed control at 560 g/ha: 90%
[6]; 504 h, read-out: Ave. AMATA
  pest or weed control at 280 g/ha: 70%
  pest or weed control at 560 g/ha: 82.5%

## O=C(COc1ccc(Cl)cc1Cl)OCCOCCOCCOC(=O)COc1ccc(Cl)cc1Cl [Compound B13]
[1]; 168 h
  pest or weed control at 280 g/ha: 72%
  pest or weed control at 560 g/ha: 75.7%
[1]; 336 h
  pest or weed control at 280 g/ha: 83.6%
  pest or weed control at 560 g/ha: 82.6%
[1]; 504 h
  pest or weed control at 280 g/ha: 86%
  pest or weed control at 560 g/ha: 84.5%
[2]; 168 h, read-out: Ave. CHEAL
  pest or weed control at 280 g/ha: 80%
  pest or weed control at 560 g/ha: 82.5%
[2]; 336 h, read-out: Ave. CHEAL
  pest or weed control at 280 g/ha: 96.5%
  pest or weed control at 560 g/ha: 98%
[2]; 504 h, read-out: Ave. CHEAL
  pest or weed control at 280 g/ha: 98.5%
  pest or weed control at 560 g/ha: 95%
[3]; 168 h, read-out: AVE. AMBEL
  pest or weed control at 280 g/ha: 72.5%
  pest or weed control at 560 g/ha: 88.5%
[3]; 336 h, read-out: AVE. AMBEL
  pest or weed control at 280 g/ha: 72.5%
  pest or weed control at 560 g/ha: 75%
[3]; 504 h, read-out: AVE. AMBEL
  pest or weed control at 280 g/ha: 100%
  pest or weed control at 560 g/ha: 99%
[4]
  TGA Data (rate of weight loss, volatility): 0.2318 µg/min
[5]; 168 h, read-out: AVE. ABUTH
  pest or weed control at 280 g/ha: 55%
  pest or weed control at 560 g/ha: 45%
[5]; 336 h, read-out: AVE. ABUTH
  pest or weed control at 280 g/ha: 62.5%
  pest or weed control at 560 g/ha: 57.5%
[5]; 504 h, read-out: AVE. ABUTH
  pest or weed control at 280 g/ha: 67.5%
  pest or weed control at 560 g/ha: 62.5%
[6]; 168 h, read-out: Ave. AMATA
  pest or weed control at 280 g/ha: 67.5%
  pest or weed control at 560 g/ha: 75%
[6]; 336 h, read-out: Ave. AMATA
  pest or weed control at 280 g/ha: 95%
  pest or weed control at 560 g/ha: 87.5%
[6]; 504 h, read-out: Ave. AMATA
  pest or weed control at 280 g/ha: 65%
  pest or weed control at 560 g/ha: 67.5%

## N/C(=N\OC(=O)COc1ccc(Cl)cc1Cl)c1ccco1 [Compound A5]
[7]; [10]
  pest or weed control at 280 g/ha: 70%
  pest or weed control at 560 g/ha: 73%
[7]; [11]
  pest or weed control at 280 g/ha: 83%
  pest or weed control at 560 g/ha: 85%
[7]; [12]
  pest or weed control at 280 g/ha: 88%
  pest or weed control at 560 g/ha: 88%
[2]; 168 h, 280 g ae/ha, 7 DAA, read-out: Ave. CHEAL, percent reduction in plant size relative to the untreated control
  pest or weed control at 280 g/ha: 60%
[2]; 168 h, 560 g ae/ha, 7 DAA, read-out: Ave. CHEAL, percent reduction in plant size relative to the untreated control
  pest or weed control at 560 g/ha: 63%
[2]; 336 h, 280 g ae/ha, 14 DAA, percent reduction in plant size relative to untreated control, read-out: Ave. CHEAL
  pest or weed control at 280 g/ha: 68%
[2]; 336 h, 560 g ae/ha, 14 DAA, percent reduction in plant size relative to untreated control, read-out: Ave. CHEAL
  pest or weed control at 560 g/ha: 63%
[2]; 504 h, 280 g ae/ha, 21 DAA, percent reduction in plant size relative to untreated control, read-out: Ave. CHEAL
  pest or weed control at 280 g/ha: 68%
[2]; 504 h, 560 g ae/ha, 21 DAA, percent reduction in plant size relative to untreated control, read-out: Ave. CHEAL
  pest or weed control at 560 g/ha: 65%
[3]; 168 h, 280 g ae/ha, 7 DAA, read-out: AVE. AMBEL, percent reduction in plant size relative to the untreated control
  pest or weed control at 280 g/ha: 60%
[3]; 168 h, 560 g ae/ha, 7 DAA, read-out: AVE. AMBEL, percent reduction in plant size relative to the untreated control
  pest or weed control at 560 g/ha: 60%
[3]; 336 h, 280 g ae/ha, 14 DAA, percent reduction in plant size relative to untreated control, read-out: AVE. AMBEL
  pest or weed control at 280 g/ha: 78%
[3]; 336 h, 560 g ae/ha, 14 DAA, percent reduction in plant size relative to untreated control, read-out: AVE. AMBEL
  pest or weed control at 560 g/ha: 85%
[3]; 504 h, 280 g ae/ha, 21 DAA, percent reduction in plant size relative to untreated control, read-out: AVE. AMBEL
  pest or weed control at 280 g/ha: 78%
[3]; 504 h, 560 g ae/ha, 21 DAA, percent reduction in plant size relative to untreated control, read-out: AVE. AMBEL
  pest or weed control at 560 g/ha: 85%
[8]; 336 h, 14 DAA
  pest or weed control at 280 g/ha: 68%
  pest or weed control at 560 g/ha: 71%
[8]; 504 h, 21 DAA
  pest or weed control at 280 g/ha: 67%
  pest or weed control at 560 g/ha: 72%
[4]
  TGA Data (rate of weight loss, volatility): 1.2 µg/min
[5]; 168 h, 280 g ae/ha, 7 DAA, read-out: AVE. ABUTH, percent reduction in plant size relative to the untreated control
  pest or weed control at 280 g/ha: 38%
[5]; 168 h, 560 g ae/ha, 7 DAA, read-out: AVE. ABUTH, percent reduction in plant size relative to the untreated control
  pest or weed control at 560 g/ha: 43%
[5]; 336 h, 280 g ae/ha, 14 DAA, percent reduction in plant size relative to untreated control, read-out: AVE. ABUTH
  pest or weed control at 280 g/ha: 40%
[5]; 336 h, 560 g ae/ha, 14 DAA, percent reduction in plant size relative to untreated control, read-out: AVE. ABUTH
  pest or weed control at 560 g/ha: 53%
[5]; 504 h, 280 g ae/ha, 21 DAA, percent reduction in plant size relative to untreated control, read-out: AVE. ABUTH
  pest or weed control at 280 g/ha: 30%
[5]; 504 h, 560 g ae/ha, 21 DAA, percent reduction in plant size relative to untreated control, read-out: AVE. ABUTH
  pest or weed control at 560 g/ha: 50%
[6]; 168 h, 280 g ae/ha, 7 DAA, read-out: Ave. AMATA, percent reduction in plant size relative to the untreated control
  pest or weed control at 280 g/ha: 70%
[6]; 168 h, 560 g ae/ha, 7 DAA, read-out: Ave. AMATA, percent reduction in plant size relative to the untreated control
  pest or weed control at 560 g/ha: 65%
[6]; 336 h, 280 g ae/ha, 14 DAA, percent reduction in plant size relative to untreated control, read-out: Ave. AMATA
  pest or weed control at 280 g/ha: 73%
[6]; 336 h, 560 g ae/ha, 14 DAA, percent reduction in plant size relative to untreated control, read-out: Ave. AMATA
  pest or weed control at 560 g/ha: 68%
[6]; 504 h, 280 g ae/ha, 21 DAA, percent reduction in plant size relative to untreated control, read-out: Ave. AMATA
  pest or weed control at 280 g/ha: 73%
[6]; 504 h, 560 g ae/ha, 21 DAA, percent reduction in plant size relative to untreated control, read-out: Ave. AMATA
  pest or weed control at 560 g/ha: 70%
[9]; 280 g ae/ha
  pest or weed control at 280 g/ha: 60%
[9]; 560 g ae/ha
  pest or weed control at 560 g/ha: 61%
